According to patent publication US20240368113A1, “AMIDE COMPOUND AND USE THEREOF” (Chengdu Fendi Pharmaceutical Co. Ltd., priority 2021, published 2024):

Legend:
MV-4-11 cells = experiment: Inhibition of tumor cell proliferation (CellTiter-Glo); type: cell-based; conditions: Homo sapiens, MV4-11; MV-4-11 cells, 72 h, CellTiter-Glo; read-out: IC50 of inhibitory activity of tumor cell proliferation
Description: MV-4-11 cells were diluted with medium (RPM1640+10% FBS+1% PS) and plated at 4000 cells/well in a white-walled clear-bottom 96-well plate. MV-4-11 cells were plated and incubated in a 5% CO2, 37° C. incubator for 2 hours. Cells were treated with the indicated concentration of compound or DMSO (control), and placed in a 5% CO2, 37° C. incubator for 72 h after dosing. After the end of the culture, equilibrate at room temperature for 30 min, add 100 μl of CellTiter-Glo® Reagent to each well, and shake the microplate shaker for 2 min. After 10 min of incubation at room temperature, the luminescence was measured by a microplate reader, and the cell-free wells were used as the background wells. CC-90009 (celegen patent phase I) was used as a control, and its structural formula was as follows: 0

hERG potassium channel [1] = target: T1, hERG potassium channel (Homo sapiens, UniProt Q12809); experiment: in vitro; conditions: hERG Inhibition rate (3 μM), HEK293 cells expressing hERG, 3 min exposure
Description: (§2) This test example is used to measure the effect of the compound on the hERG potassium channel of the clone expressed in human embryonic kidney cells (HEK293).
(§3) Assay: cells are placed in HEPES-buffered saline solution in glass-lined 96-well plates and loaded with appropriate amounts of test and control solution (0.3% DMSO solution) at each concentration for 3 min exposure time. Dilute the compound to be tested in 0.3% DMSO. An automated parallel patch-clamp system QPatch 48 X (Sophion) was used to test the inhibition of hERG by compounds at a concentration of 3 μM.
(§4) The calculation method of the inhibition rate is as follows: (peak tail current in the control group−peak tail current in the test group)/(peak tail current in the control group)×100%.

hERG potassium channel [2] = target: T1, hERG potassium channel; experiment: hERG inhibition assay (automated patch clamp, QPatch); conditions: HEK293 cells expressing hERG, 3 min exposure
Description: as §2, §3, §4

GSPT1 [3] = target: T2, GSPT1 (Homo sapiens, UniProt P15170); experiment: Western blot of GSPT1 degradation in MV-4-11 cells; type: cell-based; design: endogenous in cells; conditions: 4 h treatment, western blot (FIG. 1)
Description: (§1) Test Case 1: Regulatory Effect of the Present Invention Compound on GSPT1 in MV-4-11 Cells MV-4-11 (human myeloid monocytic leukemia cells) and NB-4 (human acute promyelocytic leukemia cells) cells were treated with medium RPMI 1640+10% FBS at 1*10^6/well was seeded in 6-well plates, then compounds were added for 4 h treatment, DMSO was used as a blank control, and cells were collected by centrifugation. Western blot analysis was performed with antibody labeling (Anti-GSPT1: CellSignaling Technology #14980s; Anti-GAPDH: HuabioET601-4; Goatanti-RabbitIgG-HRPantibody: HuabioHA1001) for detection on a Bio-Rad or MINICHEMI™ imaging system.

GSPT1 [4] = target: T2, GSPT1; experiment: Western blot of GSPT1 degradation in NB-4 cells; type: cell-based; design: endogenous in cells; host or cells: NB-4
Description: as §1

T2 sequence (P15170 whole entry): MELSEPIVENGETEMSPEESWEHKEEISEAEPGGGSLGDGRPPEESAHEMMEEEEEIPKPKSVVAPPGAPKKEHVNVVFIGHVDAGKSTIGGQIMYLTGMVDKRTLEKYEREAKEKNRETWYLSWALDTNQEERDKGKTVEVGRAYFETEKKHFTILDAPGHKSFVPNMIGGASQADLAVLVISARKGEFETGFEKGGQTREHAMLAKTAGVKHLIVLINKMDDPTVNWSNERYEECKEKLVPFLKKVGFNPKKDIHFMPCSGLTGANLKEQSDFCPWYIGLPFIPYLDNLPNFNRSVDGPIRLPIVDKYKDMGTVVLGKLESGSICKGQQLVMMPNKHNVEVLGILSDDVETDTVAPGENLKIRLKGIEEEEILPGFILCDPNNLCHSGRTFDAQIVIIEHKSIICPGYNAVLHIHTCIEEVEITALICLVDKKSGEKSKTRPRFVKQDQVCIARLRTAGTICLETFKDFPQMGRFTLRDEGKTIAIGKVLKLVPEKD
T1 sequence (Q12809 whole entry): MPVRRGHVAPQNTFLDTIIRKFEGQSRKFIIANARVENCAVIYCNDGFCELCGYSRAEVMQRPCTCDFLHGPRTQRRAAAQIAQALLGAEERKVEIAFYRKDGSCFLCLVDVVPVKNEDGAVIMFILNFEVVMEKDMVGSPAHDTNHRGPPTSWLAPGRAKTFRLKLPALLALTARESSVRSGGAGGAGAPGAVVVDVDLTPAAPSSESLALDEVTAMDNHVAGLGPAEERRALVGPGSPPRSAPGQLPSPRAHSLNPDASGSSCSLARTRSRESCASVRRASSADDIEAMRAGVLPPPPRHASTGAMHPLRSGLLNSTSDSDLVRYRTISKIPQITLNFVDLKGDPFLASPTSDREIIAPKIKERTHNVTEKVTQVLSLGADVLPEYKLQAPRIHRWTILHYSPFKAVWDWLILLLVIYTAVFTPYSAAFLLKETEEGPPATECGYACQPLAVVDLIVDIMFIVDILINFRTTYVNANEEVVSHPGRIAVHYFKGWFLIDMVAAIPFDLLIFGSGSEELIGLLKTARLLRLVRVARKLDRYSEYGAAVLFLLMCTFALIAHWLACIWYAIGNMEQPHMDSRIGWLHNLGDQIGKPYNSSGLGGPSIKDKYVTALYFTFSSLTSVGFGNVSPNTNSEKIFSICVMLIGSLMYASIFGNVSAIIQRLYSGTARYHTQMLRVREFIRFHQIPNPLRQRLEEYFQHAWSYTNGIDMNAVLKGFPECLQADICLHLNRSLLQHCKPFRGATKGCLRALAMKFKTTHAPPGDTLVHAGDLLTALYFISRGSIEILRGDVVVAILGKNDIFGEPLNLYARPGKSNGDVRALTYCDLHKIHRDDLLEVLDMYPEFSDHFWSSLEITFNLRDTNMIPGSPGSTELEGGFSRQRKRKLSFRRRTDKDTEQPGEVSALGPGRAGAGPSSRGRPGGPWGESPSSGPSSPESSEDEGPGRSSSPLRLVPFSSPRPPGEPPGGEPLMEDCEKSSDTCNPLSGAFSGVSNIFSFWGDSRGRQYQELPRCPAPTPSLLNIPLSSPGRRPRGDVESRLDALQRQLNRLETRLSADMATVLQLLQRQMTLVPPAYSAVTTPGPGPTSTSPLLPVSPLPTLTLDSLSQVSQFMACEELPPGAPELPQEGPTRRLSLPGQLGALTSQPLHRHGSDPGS

IC50 (MV-4-11 cells)	degradation of GSPT1 protein (GSPT1 [3]; 10 μM)	degradation of GSPT1 (GSPT1 [4]; 0.01 μM, 4 h treatment, western blot (FIG. 1))	compound-induced degradation of GSPT1 after pretreatment with MG132 or MLN4924 (GSPT1 [4]; pretreatment with proteasome inhibitor MG132 or NEDD8 activating enzyme inhibitor MLN4924)	Compound	inhibition at 3 µM (hERG potassium channel [1])	hERG Inhibition rate (3 μM) (hERG potassium channel [2])	degradation of GSPT1, concentration dependence (GSPT1 [3]; concentrations from 1.52 nM)
< 1 nM	completely degradation			CCc1ccc(C#CC(=O)NCc2ccc3c(c2)CN(C2CCC(=O)NC2=O)C3=O)cc1 (stereo not shown) [Compound 1]			
1 to 10 nM				O=C(C#Cc1ccc(F)cn1)NCc1ccc2c(c1)CN(C1CCC(=O)NC1=O)C2=O (stereo not shown) [Compound 12]			induced the degradation of GSPT1 more as the concentration increases
1 to 10 nM		significantly degradation	completely blocked	Nc1ccccc1C#CC(=O)NCc1ccc2c(c1)CN(C1CCC(=O)NC1=O)C2=O (stereo not shown) [Compound 83]			

Compound	IC50 (MV-4-11 cells)	degradation of GSPT1 protein (GSPT1 [3]; 10 μM)	degradation of GSPT1 (GSPT1 [4]; 0.01 μM, 4 h treatment, western blot (FIG. 1))	compound-induced degradation of GSPT1 after pretreatment with MG132 or MLN4924 (GSPT1 [4]; pretreatment with proteasome inhibitor MG132 or NEDD8 activating enzyme inhibitor MLN4924)	inhibition at 3 µM (hERG potassium channel [1])	hERG Inhibition rate (3 μM) (hERG potassium channel [2])	degradation of GSPT1, concentration dependence (GSPT1 [3]; concentrations from 1.52 nM)
O=C1CCC(N2Cc3cc(CNC(=O)C(F)(F)c4ccc(Cl)cc4)ccc3C2=O)C(=O)N1 (stereo not shown) [CC-90009]	10 to 100 nM				64%	64.48%	
